Test results reported in patent publication US20210130549A1, “IPN hydrogel for preparation and application” (EASTING BIOTECHNOLOGY COMPANY LIMITED, priority 2019, published 2021).

Assay: Hydrophilic drug release from drug-containing IPN hydrogel in sustained-release solution (HPLC, 272 nm)
Type: physicochemical
Conditions: from release curve FIG. 4; drug-loaded IPN hydrogel; sampling 30 minutes to 72 hours
Method: The drug-containing hydrogel was placed in a sustained-release solution for drug release testing and taking the samples from sustained-release solution within a fixed time.
Taking the samples with fixed time and test releasing concentration. The sampling time is 30 minutes, 60 minutes, 90 minutes, 180 minutes, 8 hours, 24 hours, 48 hours, and 72 hours.
The subsequent drug concentration was analyzed by high performance liquid chromatography (HPLC). The water-based drug used caffeine for drug release, and the absorption wavelength of caffeine was 272 nm for measurement.

## Cn1c(=O)c2c(ncn2C)n(C)c1=O [caffeine]
  release amount of caffeine in water: ≥ 40%
